Results as given in patent US11739098B2 (BRISTOL-MYERS SQUIBB COMPANY, priority 2017, dated 2023).

Experiments:
Format in all cases: cell-based
human TLR7 = target: T1, human TLR7 (Homo sapiens, UniProt Q9NYK1); assay: TLR7 inhibition reporter assay (HEK-Blue cells, SEAP reporter, gardiquimod stimulation); conditions: HEK-Blue cells overexpressing human TLR7, SEAP reporter, gardiquimod 7.5 μM
T1 construct: host or cells: HEK-Blue cells (HEK293-derived reporter line)
T1 sequence (Q9NYK1 27-1049): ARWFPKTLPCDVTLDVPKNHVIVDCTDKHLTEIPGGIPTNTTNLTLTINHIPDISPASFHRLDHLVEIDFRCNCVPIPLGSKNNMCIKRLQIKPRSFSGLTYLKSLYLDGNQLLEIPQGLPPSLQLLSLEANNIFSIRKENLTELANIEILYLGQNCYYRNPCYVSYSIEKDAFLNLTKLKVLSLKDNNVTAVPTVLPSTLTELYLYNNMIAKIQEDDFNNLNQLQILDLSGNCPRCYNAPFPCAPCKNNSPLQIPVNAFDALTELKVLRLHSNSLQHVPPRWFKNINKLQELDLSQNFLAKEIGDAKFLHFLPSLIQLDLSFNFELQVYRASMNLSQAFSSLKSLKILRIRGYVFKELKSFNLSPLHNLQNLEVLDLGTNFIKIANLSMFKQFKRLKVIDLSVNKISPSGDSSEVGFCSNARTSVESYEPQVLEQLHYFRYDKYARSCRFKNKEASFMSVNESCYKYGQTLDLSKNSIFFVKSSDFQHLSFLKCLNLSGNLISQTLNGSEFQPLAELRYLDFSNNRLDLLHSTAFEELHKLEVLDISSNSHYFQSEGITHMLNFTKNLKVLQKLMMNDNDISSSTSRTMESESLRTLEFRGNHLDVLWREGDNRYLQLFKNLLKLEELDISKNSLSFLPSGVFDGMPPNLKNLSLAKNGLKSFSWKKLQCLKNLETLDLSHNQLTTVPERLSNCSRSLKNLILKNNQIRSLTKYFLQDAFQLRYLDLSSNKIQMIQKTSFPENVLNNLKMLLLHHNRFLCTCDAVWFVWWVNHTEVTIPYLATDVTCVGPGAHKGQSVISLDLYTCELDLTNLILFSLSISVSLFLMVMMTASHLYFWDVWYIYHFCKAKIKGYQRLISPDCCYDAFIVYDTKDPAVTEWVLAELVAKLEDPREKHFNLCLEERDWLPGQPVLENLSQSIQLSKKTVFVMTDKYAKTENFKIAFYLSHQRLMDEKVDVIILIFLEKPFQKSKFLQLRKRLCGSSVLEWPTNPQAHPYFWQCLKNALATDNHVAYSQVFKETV
In short: (§1)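 Read-out is SEAP activity in HEK-Blue detection medium after 22 h at 37 °C, converted to percent inhibition against agonist-plus-DMSO and reference-inhibitor controls. Cells saw compound (0.05 nM–50 μM, 30 min, room temperature) before gardiquimod 7.5 μM, R848 15.9 μM or ODN2006 5 nM for TLR7, TLR8 and TLR9, respectively.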

human TLR8 = target: T2, human TLR8 (Homo sapiens, UniProt Q9NR97); assay: TLR8 inhibition reporter assay (HEK-Blue cells, SEAP reporter, R848 stimulation); conditions: HEK-Blue cells overexpressing human TLR8, SEAP reporter, R848 15.9 μM
T2 construct: host or cells: HEK-Blue cells (HEK293-derived reporter line)
T2 sequence (Q9NR97 27-1041): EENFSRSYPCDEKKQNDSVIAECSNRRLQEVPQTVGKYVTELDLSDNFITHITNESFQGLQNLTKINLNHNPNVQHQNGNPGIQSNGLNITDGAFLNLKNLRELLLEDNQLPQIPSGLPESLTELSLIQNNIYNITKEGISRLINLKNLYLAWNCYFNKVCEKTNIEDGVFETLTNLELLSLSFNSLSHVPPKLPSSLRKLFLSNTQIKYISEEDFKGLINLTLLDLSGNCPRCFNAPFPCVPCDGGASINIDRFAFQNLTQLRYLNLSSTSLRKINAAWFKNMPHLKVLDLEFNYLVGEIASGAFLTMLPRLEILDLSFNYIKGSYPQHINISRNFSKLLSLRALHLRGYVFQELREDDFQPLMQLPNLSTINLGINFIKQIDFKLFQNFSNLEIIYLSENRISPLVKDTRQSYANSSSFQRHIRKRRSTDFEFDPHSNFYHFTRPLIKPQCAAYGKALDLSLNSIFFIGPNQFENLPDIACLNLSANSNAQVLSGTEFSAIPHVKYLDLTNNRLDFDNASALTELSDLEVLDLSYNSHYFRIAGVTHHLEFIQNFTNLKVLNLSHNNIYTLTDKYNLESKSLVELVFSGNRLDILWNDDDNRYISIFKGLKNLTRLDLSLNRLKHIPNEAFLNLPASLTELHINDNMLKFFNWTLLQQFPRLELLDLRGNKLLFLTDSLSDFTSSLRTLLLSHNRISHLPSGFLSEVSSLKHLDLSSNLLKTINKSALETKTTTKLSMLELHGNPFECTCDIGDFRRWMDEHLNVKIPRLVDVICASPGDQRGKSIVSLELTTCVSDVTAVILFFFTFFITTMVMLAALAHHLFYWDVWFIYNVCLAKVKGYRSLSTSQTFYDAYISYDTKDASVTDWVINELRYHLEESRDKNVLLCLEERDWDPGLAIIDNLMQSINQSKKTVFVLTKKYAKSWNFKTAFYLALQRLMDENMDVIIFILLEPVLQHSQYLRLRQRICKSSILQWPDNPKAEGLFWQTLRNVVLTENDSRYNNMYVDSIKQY
In short: as §1

human TLR9 = target: T3, human TLR9 (Homo sapiens, UniProt Q9NR96); assay: TLR9 inhibition reporter assay (HEK-Blue cells, SEAP reporter, ODN2006 stimulation); conditions: HEK-Blue cells overexpressing human TLR9, SEAP reporter, ODN2006 5 nM
T3 construct: host or cells: HEK-Blue cells (HEK293-derived reporter line)
T3 sequence (Q9NR96 26-1032): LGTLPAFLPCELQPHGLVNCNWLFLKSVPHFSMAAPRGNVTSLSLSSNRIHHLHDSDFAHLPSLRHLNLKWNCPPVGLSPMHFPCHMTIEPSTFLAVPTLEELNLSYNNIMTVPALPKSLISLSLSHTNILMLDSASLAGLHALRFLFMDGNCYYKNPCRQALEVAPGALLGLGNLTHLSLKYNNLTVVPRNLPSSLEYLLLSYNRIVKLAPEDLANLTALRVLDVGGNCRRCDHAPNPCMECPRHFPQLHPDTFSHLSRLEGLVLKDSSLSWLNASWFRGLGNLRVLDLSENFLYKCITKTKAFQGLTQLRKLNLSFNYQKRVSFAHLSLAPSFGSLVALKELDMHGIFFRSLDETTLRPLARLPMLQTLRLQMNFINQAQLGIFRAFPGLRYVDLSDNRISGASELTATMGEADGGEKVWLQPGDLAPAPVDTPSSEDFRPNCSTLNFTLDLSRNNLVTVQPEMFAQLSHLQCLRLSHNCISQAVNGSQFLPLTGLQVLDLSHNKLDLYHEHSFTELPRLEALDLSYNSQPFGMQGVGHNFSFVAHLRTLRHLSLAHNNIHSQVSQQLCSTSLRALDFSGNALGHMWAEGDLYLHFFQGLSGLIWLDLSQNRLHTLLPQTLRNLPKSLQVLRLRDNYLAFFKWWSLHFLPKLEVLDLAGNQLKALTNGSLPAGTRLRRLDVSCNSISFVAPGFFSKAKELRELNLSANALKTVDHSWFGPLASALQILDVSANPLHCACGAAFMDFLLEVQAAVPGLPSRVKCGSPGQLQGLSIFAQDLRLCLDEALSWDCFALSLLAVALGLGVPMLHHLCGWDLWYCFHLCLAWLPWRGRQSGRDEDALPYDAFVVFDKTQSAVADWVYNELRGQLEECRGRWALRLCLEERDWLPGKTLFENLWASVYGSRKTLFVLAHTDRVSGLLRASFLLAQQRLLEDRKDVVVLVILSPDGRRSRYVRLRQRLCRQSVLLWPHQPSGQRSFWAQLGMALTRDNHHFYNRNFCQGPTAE
In short: as §1

Compound	IC50 (human TLR7) [nM]	IC50 (human TLR8) [nM]	IC50 (human TLR9) [nM]
CC(C)c1c(-c2ccc3ncc(C#N)n3c2)[nH]c2ccc(C3CCNCC3)cc12 [Example 119, 6-(3-isopropyl-5-(piperidin-4-yl)-1H-indol-2-yl)imidazo[1,2-a]pyridine-3-carbonitrile]	100 to 1000	100 to 1000	1000 to 50000
CNCC(=O)N1CCC(c2ccc3[nH]c(-c4cc(C)c5ncccc5c4)c(C(C)C)c3c2)CC1 [Example 560, 1-(4-(3-isopropyl-2-(8-methylquinolin-6-yl)-1H-indol-5-yl)piperidin-1-yl)-2-(methylamino)ethan-1-one]	< 100	< 100	1000 to 50000
Cc1cc(-c2[nH]c3ccc(C4CCN(C(=O)[C@@H]5C[C@@H](O)CN5)CC4)cc3c2C(C)C)cc2nccn12 [Example 539, ((2S,4R)-4-hydroxypyrrolidin-2-yl)(4-(3-isopropyl-2-(5-methylimidazo[1,2-a]pyridin-7-yl)-1H-indol-5-yl)piperidin-1-yl)methanone]	1000 to 50000	1000 to 50000	1000 to 50000
CCOc1cc(-c2[nH]c3ccc(C4CCNCC4)cc3c2C(C)C)cc2ncnn12 [Example 157, 5-ethoxy-7-(3-isopropyl-5-(piperidin-4-yl)-1H-indol-2-yl)-[1,2,4]triazolo[1,5-a]pyridine]	< 100	< 100	100 to 1000
Cc1c(-c2ncnn3cccc23)[nH]c2ccc(C3CCN(C4CCN(C(C)C)CC4)CC3)cc12 [Example 806, 4-(5-(1′-isopropyl-[1,4′-bipiperidin]-4-yl)-3-methyl-1H-indol-2-yl)pyrrolo[2,1-f][1,2,4]triazine]	1000 to 50000	< 100	< 100
CC(C)c1c(-c2ccc3ncnn3n2)[nH]c2ccc(C3CCN(C4CCOCC4)CC3)cc12 [Example 683, 6-(3-isopropyl-5-(1-(tetrahydro-2H-pyran-4-yl)piperidin-4-yl)-1H-indol-2-yl)-[1,2,4]triazolo[1,5-b]pyridazine]	< 100	< 100	1000 to 50000
Cc1cc(-c2[nH]c3ccc(C4CCNCC4)cc3c2C(C)C)cc2ncnn12 [Example 154, 7-(3-isopropyl-5-(piperidin-4-yl)-1H-indol-2-yl)-5-methyl-[1,2,4]triazolo[1,5-a]pyridine]	< 100	< 100	1000 to 50000
Cc1cc(-c2[nH]c3ccc(C4CCN(C(=O)C5CC(=O)N(C)C5)CC4)cc3c2C(C)C)c2ccccc2n1 (stereo not drawn) [Example 638, 4-(4-(3-isopropyl-2-(2-methylquinolin-4-yl)-1H-indol-5-yl)piperidine-1-carbonyl)-1-methylpyrrolidin-2-one]	< 100	100 to 1000	> 50000
CC(C)c1c(-c2cnc3ccnn3c2)[nH]c2ccc(C3CCN(C(=O)C[C@H](C)O)CC3)cc12 [Example 595, (S)-3-hydroxy-1-(4-(3-isopropyl-2-(pyrazolo[1,5-a]pyrimidin-6-yl)-1H-indol-5-yl)piperidin-1-yl)butan-1-one]	> 3130	> 3130	> 50000

More lines, now with the values ahead:

IC50 (human TLR7) [nM]	IC50 (human TLR8) [nM]	IC50 (human TLR9) [nM]	Compound
< 100	< 100	1000 to 50000	CC(C)c1c(-c2ccc3ncsc3c2)[nH]c2ccc(C3CCNCC3)cc12 [Example 9, 6-(3-isopropyl-5-(piperidin-4-yl)-1H-indol-2-yl) benzo[d]thiazole]
< 100	< 100	1000 to 50000	Cc1c(-c2[nH]c3ccc(C4CCN(CC(C)(C)O)CC4)cc3c2C(C)C)ccc2c1cnn2C [Example 763, 1-(4-(2-(1,4-dimethyl-1H-indazol-5-yl)-3-isopropyl-1H-indol-5-yl)piperidin-1-yl)-2-methylpropan-2-ol]
< 100	< 100	100 to 1000	Cc1cc2[nH]c(-c3ccnc4[nH]ncc34)c(C(C)C)c2cc1C1CCNCC1 [Example 250, 4-(3-isopropyl-6-methyl-5-(piperidin-4-yl)-1H-indol-2-yl)-1H-pyrazolo[3,4-b]pyridine]
< 100	< 100	1000 to 50000	CNC(=O)CN1CCC(c2ccc3[nH]c(-c4cnc5c(cnn5C)c4)c(C(C)C)c3c2)CC1 [Example 366, 2-(4-(3-isopropyl-2-(1-methyl-1H-pyrazolo[3,4-b]pyridin-5-yl)-1H-indol-5-yl)piperidin-1-yl)-N-methylacetamide]
< 100	< 100	100 to 1000	CC(C)c1c(-c2ccnc3[nH]ncc23)[nH]c2ccc(C3CCN(Cc4ccc(Oc5ncccn5)cc4)CC3)cc12 [Example 899, 4-(3-isopropyl-5-(1-(4-(pyrimidin-2-yloxy)benzyl)piperidin-4-yl)-1H-indol-2-yl)-1H-pyrazolo[3,4-b]pyridine]
< 100	< 100	100 to 1000	FC(F)Cc1c(-c2ccnc3[nH]ccc23)[nH]c2ccc(C3CCNCC3)cc12 [Example 205, 4-(3-(2,2-difluoroethyl)-5-(piperidin-4-yl)-1H-indol-2-yl)-1H-pyrrolo [2,3-b]pyridine]
